The subject of series [1] is glycolysis. To be noted: cited from earlier work.
For series [2], the target named is PFKFB3 (Homo sapiens, UniProt Q16875). Nature of the series: PFKFB3 enzyme-coupled kinetics assay (pyruvate kinase/lactate dehydrogenase, NADH consumption). To be noted: 150 μM.
Experimental: PFKFB3 activity was measured by an enzyme-coupled kinetics assay incorporating pyruvate kinase and lactate dehydrogenase as previously described. […] The assay measures NADH consumption spectrophotometrically as a loss of absorption at 340 nm with stoichiometry of 1 mol ATP: 1 mol NADH consumed. Assays were carried out in 96 well plates at 37° in 200 μL final volume containing 1XPFKFB3 reaction buffer (100 mM Tris-HCl, 100 μM EDTA, 5 mM KH2PO4; pH=7.4), 420 μM phophoenolpyruvate (PEP), 5 mM ATP, 400 μM NADH, 613 units of pyruvate kinase (PK), 1092 units of lactate dehydrogenase (LDH), increasing concentrations of fructose-6-phosphate (40-400 μM), and 15 μg of purified PFKFB3. […] Assays were measured using a BioTek POWERWAVE™ plate reader (BioTek Instruments, Inc., Winooski, Vt., United States of America) in kinetics mode over 15 minute periods to determine kinetic rate of PFKFB3. The enzyme kinetics module for SigmaPlot® 9.0 (SYSTAT Software, Inc., San Jose, Calif., United States of America) was used to calculate the kinetic parameters for PFKFB3 and 1 inhibition (Vmax, Km, and Ki). The Vmax is expressed in specific activity of PFKFB3 as nmol F6P×min^−1×mg^−1. […] The data represented are the mean±STD from triplicate measurements from two independent experiments.
Series [3] deals with HL-60 leukemia cells. Nature of the series: In vitro growth inhibition, HL-60. Type of series: cell-based, human. The note with it: 1, 3, 10, 33 μM. As to the method: (§1) The K562, HL-60, MDA-MB231, and melanoma (CRL-11174) human cancer cell lines were purchased from ATCC (American Tissue Type Culture Collection, Manassas, Va., United States of America). HeLa, A549, Lewis Lung Carcinoma, MDA-MB231, and melanoma cells were grown in Dulbecco's Modified Eagle Medium (DMEM) (Hyclone, Logan, Utah, United States of America) supplemented with 10% fetal bovine serum (Hyclone, Logan, Utah, United States of America) and 50 μg/mL gentamicin sulfate (Invitrogen, Carlsbad, Calif., United States of America). The HL-60, K562, and Jurkat cell lines were grown in RPMI-1640 medium (Hyclone, Logan, Utah, United States of America) supplemented with 10% fetal bovine serum and 50 μg/mL gentamicin sulfate. […]
(§2) Cells were collected 48 hours post-treatment, and cell number and viability were determined by trypan blue exclusion. […]

Series [4] concerns K562 leukemia cells. Nature of the series: In vitro growth inhibition, K562. Type of series: cell-based, human. The note with it: 1, 3, 10, 33 μM. As to the method:
as §1, §2

For series [5], the system named is BX-PC-3. Nature of the series: MTT assay 48 hours, BX-PC-3. It is filed as cell-based. The note with it: Homo sapiens, BXPC-3, BX-PC-3, MTT assay. As for the experimental part:
(§3) The ability of the compounds described herein to kill or inhibit the proliferation of cancer cells was measured using either the MTT assay, the Alamar Blue assay, or the Cell Titer Glow® assay using 48 or 72 hours exposure. […] The procedures are briefly described below. Cells of the desired tumor cell line were plated at 2×10^5 cells/ml in 96 well plates. Twice the indicated concentrations of the compounds of the invention were added to cells the following day in an equal volume of media. 72 hours later, cells were lysed and subjected to ATP determination using the CellTiter Glo-Luminescent Cell Viability Assay kit (Promega, Madison, Wis.). Experiments were done in triplicate. When using the MTT assay or the Alamar blue assay, the experimental conditions are essentially similar; at the end of the incubation period, 20 microl of the MTT solution is added per well and the samples are incubated for an additional four hours, rinsed and the absorbance at 570 nm measured. Results for the inhibition of cells proliferation are reported as IC50 as commonly done (the concentration leading to a 50% inhibition of proliferation of the cell population) and are listed in the Tables below. Table 4 lists the IC50 for the compounds of the invention in several cell lines including Jurkat, Calu-6, NCI-H82, U937, or NCI-H1437 cancer cell lines. Table 5 lists the IC50 of PFK-070 in a panel of 10 cell lines.
(In general: Tetrazolium dyes change colour on reduction, which living cells bring about.)

The nature of series [6]: Microsomal stability in human liver microsomes. Type of series: in vitro ADME. To be noted: 0 min. As to the method:
Microsomal stability in vitro in different biologic media (liver microsomes, S9 fraction, hepatocytes) and species is ascertained to evaluate the rate at which a compound undergoes metabolism in the experimental in vitro conditions. […] Experimental conditions are briefly described here: the stability in human liver microsomes of several compounds was done over […] at 37° C. using pooled mixed gender human liver microsomes. These liver microsomes were prepared at 1.0 mg/ml of microsomal protein in a 100 mM potassium phosphate pH 7.4 buffer with 1 mM NADPH. The media was incubated at 37° C. with the compound in solution in DMSO. The concentration of the compound was followed by LC/MS-MS as a function of time. […] Testosterone was used as a positive control. The same experiment was performed with mouse, rat or dog liver microsomes instead of human liver microsomes.
On the technique in general: Liver microsomes are vesicles of endoplasmic reticulum, rich in cytochrome P450 enzymes.

In series [7] the test system is U937. Nature of the series: Cancer cell proliferation, Alamar Blue assay 72 hours, U937. It is filed as cell-based. The note with it: Homo sapiens, U-937. As for the experimental part:
as §3
In general terms: Alamar Blue is a resazurin reagent that responds to reducing activity.

In series [8] the test system is Jurkat. Description: Cancer cell proliferation, Alamar Blue assay 72 hours, Jurkat. Type of series: cell-based. The note with it: Homo sapiens, Jurkat, 72 h. As for the experimental part: as §3
The subject of series [9] is SK-BR-3. Nature of the series: MTT assay 48 hours, SK-BR-3. Type of series: cell-based. The note with it: Homo sapiens, SK-BR-3, MTT assay. As for the experimental part:
as §3

Series [10] deals with NCI-H82. Description: Cancer cell proliferation, Alamar Blue assay 72 hours, NCI-H82. It is filed as cell-based. The note with it: Homo sapiens. As to the method: as §3
The test system of series [11] is Calu-6. Description: Cancer cell proliferation, Alamar Blue assay 72 hours, Calu-6. It is filed as cell-based. To be noted: Homo sapiens. As to the method:
as §3

The subject of series [12] is MiaPaca. Nature of the series: MTT assay 48 hours, MiaPaca. Type of series: cell-based. To be noted: Homo sapiens, MIA PaCa-2. As for the experimental part:
as §3

In series [13] the test system is A549. Nature of the series: MTT assay 48 hours, A549. Type of series: cell-based. To be noted: Homo sapiens. As for the experimental part: as §3
In series [14] the test system is CT26. Description: MTT assay 48 hours, CT26. It is filed as cell-based, murine. To be noted: Mus musculus. As for the experimental part: as §3
Series [15] has as its system BT474. Description: MTT assay 48 hours, BT474. Type of series: cell-based. The note with it: Homo sapiens, BT-474. As for the experimental part: as §3
Series [16] relates to LnCap. Nature of the series: MTT assay 48 hours, LnCap. To be noted: Homo sapiens. Type of series: cell-based. As to the method: as §3
A short description of series [17]: Solubility in dosing solution Cre:EtOH:Saline. It is filed as physicochemical. To be noted: Cremophor:EtOH:Saline 5:5:90, aqueous with cosolvent or surfactant or cyclodextrin, kinetic from dmso stock; 5:5:90 Cremophor:EtOH:Saline, after 24 hours at room temperature. An excerpt:
Chemical properties of the compounds of the invention were investigated, mainly the solubility in several solvents and pharmaceutically accepted excipients or dosing solutions and the stability of these solutions. […] The increase in solubility when comparing the effect of chemical substituents is unpredictable and surprising if one compares the solubility values of PFK-070 to PFK-091 and PFK-070 to PFK-141 and 145 in a dosing solution that could be used to treat cancer patients (See Table 8A below). Briefly, selected compounds of the invention are dissolved in a small volume of the solvents/excipients of interest (Cremophor, or Cremophor:etoh or Tween80:etoh) at room temperature and diluted 1:9 in saline and left at room temperature for over 8 or 24 hours. Both the physical (absence of a precipitate) and the chemical stability (less than 5% degradation) of the solutions are measured (observation and HPLC after filtration).

Series [18] relates to H22. Description: MTT assay 48 hours, H22. Type of series: cell-based. To be noted: Mus musculus. As to the method: as §3
Series [19] concerns NCI-H1437. Description: Cancer cell proliferation, Alamar Blue assay 72 hours, NCI-H1437. Type of series: cell-based. The note with it: Homo sapiens. As to the method:
as §3

Series [20] has as its system SK-N-SH. Nature of the series: MTT assay 48 hours, SK-N-SH. It is filed as cell-based. The note with it: Homo sapiens. As for the experimental part: as §3
The test system of series [21] is Jurkat cells. Description: Inhibition of 2-deoxyglucose uptake, Example 14. It is filed as cell-based. The note with it: Homo sapiens, 3 hours. As to the method:
Inhibition of PFKFB3 results in inhibiting glycolysis. Several feedback or feedforward activation and inhibition mechanisms exist so that, by a feedback mechanism, inhibiting the activity of PFKFB3 might inhibit glucose uptake by cells. An assay was developed to determine if there was inhibition of glucose uptake following exposure to the compounds on the invention. Briefly, Jurkat cells were plated at 1×10^5/mL in RPMI 1640 supplemented with 10% fetal bovine serum and 50 μg/mL gentamicin sulfate. Cells were immediately treated with vehicle or 0.5 μmol/L of the compound of the invention for 3 hours and subsequently placed in glucose-free RPMI 1640 for 30 min. ^14C-2-deoxyglucose (0.25 μCi/mL; Perkin Elmer) was added for an additional 60 min and cells were then washed three times with ice-cold RPMI 1640 containing no glucose. Cell lysates were collected in 500 μL of 0.1% SDS, and scintillation counts (counts/min) were measured on 400 μL of lysate. Counts were normalized to protein concentration.

Series [22] concerns U87MG. Description: MTT assay 48 hours, U87MG. To be noted: Homo sapiens, U-87 MG. It is filed as cell-based. As for the experimental part:
as §3

Molecules are shown by their SMILES. pIC50: −log10 of the molar value. Converted amounts (≈) assume the structure as drawn.

Broadly, the pIC50 is −log10 of the IC50, conventionally taken in molar units. A higher pIC50 goes with a small IC50. A word on the solubility: it is the concentration that dissolves in the medium under given conditions. Higher therefore signals much dissolved substance. Broadly, the inhibition is the relative decrease from the control value, in per cent. Low values mean a response near the control, high ones a response far below the control.

Chain of PFKFB3 (Q16875 whole entry): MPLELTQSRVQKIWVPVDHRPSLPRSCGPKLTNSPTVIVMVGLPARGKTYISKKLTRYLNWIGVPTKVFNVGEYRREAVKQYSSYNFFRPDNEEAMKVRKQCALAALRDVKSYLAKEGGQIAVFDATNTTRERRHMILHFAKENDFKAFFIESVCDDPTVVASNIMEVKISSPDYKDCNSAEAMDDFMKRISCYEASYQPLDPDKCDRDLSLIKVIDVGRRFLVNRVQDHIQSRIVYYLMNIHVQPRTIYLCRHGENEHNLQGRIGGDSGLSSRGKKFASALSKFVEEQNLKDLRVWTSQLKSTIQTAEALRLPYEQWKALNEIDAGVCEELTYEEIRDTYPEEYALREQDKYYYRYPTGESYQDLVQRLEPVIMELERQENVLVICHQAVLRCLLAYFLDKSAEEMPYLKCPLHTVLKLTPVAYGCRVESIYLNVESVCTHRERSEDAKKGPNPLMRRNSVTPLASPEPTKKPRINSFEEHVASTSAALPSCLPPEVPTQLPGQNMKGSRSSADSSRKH

As for `O=CC[C@@H](O)[C@H](O)[C@H](O)CO` [Compound 2-DG, 2-deoxyglucose], in series [1], the “effective concentration of other inhibitors of glycolysis” value is on record as “low mM”.

Regarding `O=C(/C=C/c1ccc(Cl)cc1)c1cccnc1` [Compound 2, 3-(4-chlorophenyl)-1-(3-pyridinyl)-2-propen-1-one], in series [2], the “kinetic rate of PFKFB3 reduced compared to vehicle (EtOH)” value worked out at 39.8% and the “kinetic rate of recombinant PFKFB3 as % of that with vehicle (EtOH)” value is 39.8%. Besides, the cellular toxicity result in series [3] is recorded as “dose-dependent cellular toxicity”. In [4], the cellular toxicity entry was “dose-dependent cellular toxicity”.

With `O=C(/C=C/c1ccc2cccc(O)c2n1)c1ccncc1` [ACT-PFK-070, 3-(8-Hydroxy-quinolin-2-yl)-1-pyridin-4-yl-propenone], the pIC50 is 5.93 in series [5]; 5.44 in series [7]; 5.89 in series [8]; 5.80 in series [9]; 5.40 in [10]; 5.13 in series [11]. Also, the pIC50 in series [12] is 6.56; in series [13], 5.57; in series [14] it was 5.69; in series [15], 6.02; in series [16], 5.89; in [18], 5.40. Besides, the pIC50 in [19] was 4.53; in [20], 5.84; in series [22] it was 5.78. Moreover, the “Mean metabolized (%)” value in series [6] came to 0%. The concentration in solution in series [17] (solubility at 24 h) was 100 µg/mL (≈ 362 µM). At 0.5 µM the inhibition in series [21] was 45%.
